According to patent US20240285548A1, “AGENT FOR PREVENTION AND/OR TREATMENT OF COGNITIVE IMPAIRMENT” (NATIONAL CEREBRAL AND CARDIOVASCULAR CENTER, priority 2022, published 2024):

Key:
[1] = test system: human Alzheimer's patients; settings: 500 mg of resveratrol; NPL 5; cited from earlier work
[2] = test system: patients with asymptomatic moderate or severe carotid artery stenosis/occlusion; assay: Adverse events during long-term resveratrol intake; format: in vivo, human; settings: Example 2, 30 mg/day
Text: The baseline mean total MoCA scores were 23.6±3.6 in the non-RES group and 23.7±3.6 in the RES group. Further, the mean total ADAS-Cog scores were 14.6±5.4 in the non-RES group and 15.8±7.2 in the RES group. The mean observation periods were 244.8±86.9 and 221.2±61.9 days, respectively (p=0.18). The baseline scores were under the category of mild cognitive impairment (MCI) (Table 4).
To identify the reason associated with significant improvements in the visuospatial cognitive function, executive function, and memory in the RES group, cerebral blood flow was measured. Initially, the cerebral blood flow change in each entire hemisphere was analyzed. […] To examine the changes in detail, the cerebral blood flow was analyzed in terms of the frontal lobe, basal ganglia, and thalamus, which govern the visuospatial cognitive and executive functions, and memory. Longitudinally, long-term resveratrol intake was associated with a significant increase in cerebral blood flow in the right frontal lobe (non-RES group: 0.001±0.037, RES group: 0.019±0.033; p=0.027)). […] Therefore, long-term resveratrol intake may contribute not only to improvement of cognitive function but also to increase in cerebral blood flow.

[3] = test system: carotid artery occlusion model mice; settings: NPL 3; cited from earlier work
[4] = test system: patients with asymptomatic moderate or severe carotid artery stenosis/occlusion; assay: 15O-gas PET: cerebral blood flow, cerebral oxygen metabolic rate, cerebral oxygen uptake rate; format: in vivo, human; parameters: Cerebral blood flow change: entire right hemisphere / Cerebral blood flow change: entire left hemisphere / Cerebral blood flow change: right frontal lobe / Cerebral blood flow change: right callosomarginal artery area / Cerebral blood flow change: left callosomarginal artery area / Cerebral blood flow change: left lenticular nucleus / Cerebral blood flow change: left thalamus: unit not given here; settings: for β, resveratrol intake vs cerebral blood flow change: Frontal circulation area / β, resveratrol intake vs cerebral blood flow change: Left callosomarginal artery area / β, resveratrol intake vs cerebral blood flow change: Left lenticular nucleus / β, resveratrol intake vs cerebral blood flow change: Right callosomarginal artery area / β, resveratrol intake vs cerebral blood flow change: Right precentral artery / β, resveratrol intake vs cerebral blood flow change: Thalamus, Left / β, resveratrol intake vs cerebral blood flow change: Thalamus, Right: 79 patients, linear regression
Experimental: Subjects were patients with asymptomatic moderate or severe carotid artery stenosis/occlusion who visited the National Cerebral and Cardiovascular Center in Japan from July 2020 to August 2021 and who were taking or not taking trans-resveratrol in an amount of 30 mg/day. The inclusion criteria were as follows: (1) patients with asymptomatic moderate or severe carotid artery stenosis/occlusion who presented with a peak systolic velocity of 130 cm/s or more at a stenotic lesion on carotid ultrasonography (corresponding to a stenotic diameter of >50%) and who underwent test (2) and/or (3); (2) patients who underwent cognitive function tests (Alzheimer's Disease Assessment Scale-Cognitive subscale 13 (ADAS-Cog) and Montreal Cognitive Assessment (MoCA)) longitudinally twice; (3) patients who also underwent ^15O-gas positron emission tomography (PET) longitudinally twice in a similar manner. The primary outcome is a comparison of the amounts of change in ADAS-Cog during the observation period (differential analysis). The secondary outcomes are (1) a comparison of the amounts of change in MoCA during the observation period (differential analysis), and (2) a comparison of the amounts of change in cerebral blood flow on ^15O -gas PET (differential analysis). This study was initiated after receiving approval from the Research Ethics Review Committee of the National Cerebral and Cardiovascular Center (Research Project Number: R20113). All PET images were anatomically standardized using linear and nonlinear transformations with SPM2 to ensure that the brain images of all patients had the same anatomical format, and the cerebral blood flow was quantified using 3DSRT (PDRadiopharma Inc., Tokyo, Japan). Each hemisphere was divided into twelve ROI segments, grouped according to the arterial supply: callosomarginal artery area, pericallosal artery area, precentral artery area, central artery area, angular artery area, parietal lobe, temporal lobe, occipital lobe, hippocampus, lenticular nucleus, thalamus, and cerebellum. The frontal circulation areas were defined to be the callosomarginal artery area, pericallosal artery area, precentral artery area, and central artery area. In quantifying the relative cerebral blood flow, counts under each ROI were normalized to an average cerebral blood flow count within the bilateral cerebellum. […] Using 3D-SRT (FUJIFILM RI Pharma, Tokyo, Japan), the difference in the amount of change was analyzed (for the RES group, the difference between the cerebral blood flow before RES administration (relative to cerebellum) and the cerebral blood flow after RES administration (relative to cerebellum); for the non-RES group, the cerebral blood flow at intervals of 6 months to 1 year (relative to cerebellum)). […] In Example 1 above, the 82 subject patients included patients who were tested for both change in cognitive function and change in cerebral blood flow, as well as patients who were tested for only either change in cognitive function or change in cerebral blood flow. Therefore, based on the above results, the same analysis as in Example 1 was performed again on 79 patients who were tested for both change in cognitive function and change in cerebral blood flow from among the 82 patients. To identify the reason associated with significant improvements in the visuospatial cognitive function, executive function, and memory in the RES group, cerebral blood flow was measured. Initially, the cerebral blood flow change in each entire hemisphere was analyzed. […] To examine the changes in detail, the cerebral blood flow was analyzed in terms of the frontal lobe, basal ganglia, and thalamus, which govern the visuospatial cognitive and executive functions, and memory. Longitudinally, long-term resveratrol intake was associated with a significant increase in cerebral blood flow in the right frontal lobe (non-RES group: 0.001±0.037, RES group: 0.019±0.033; p=0.027)). […]

[5] = test system: patients with asymptomatic moderate or severe carotid artery stenosis/occlusion; assay: Montreal Cognitive Assessment (MoCA), change during observation period; format: in vivo, human; settings: for β, resveratrol intake vs MoCA visuospatial cognitive function/executive function change: 79 patients, linear regression
Experimental: (§1) Subjects were patients with asymptomatic moderate or severe carotid artery stenosis/occlusion who visited the National Cerebral and Cardiovascular Center in Japan from July 2020 to August 2021 and who were taking or not taking trans-resveratrol in an amount of 30 mg/day. The inclusion criteria were as follows: (1) patients with asymptomatic moderate or severe carotid artery stenosis/occlusion who presented with a peak systolic velocity of 130 cm/s or more at a stenotic lesion on carotid ultrasonography (corresponding to a stenotic diameter of >50%) and who underwent test (2) and/or (3); (2) patients who underwent cognitive function tests (Alzheimer's Disease Assessment Scale-Cognitive subscale 13 (ADAS-Cog) and Montreal Cognitive Assessment (MoCA)) longitudinally twice; (3) patients who also underwent ^15O-gas positron emission tomography (PET) longitudinally twice in a similar manner. The primary outcome is a comparison of the amounts of change in ADAS-Cog during the observation period (differential analysis). The secondary outcomes are (1) a comparison of the amounts of change in MoCA during the observation period (differential analysis), and (2) a comparison of the amounts of change in cerebral blood flow on ^15O -gas PET (differential analysis). This study was initiated after receiving approval from the Research Ethics Review Committee of the National Cerebral and Cardiovascular Center (Research Project Number: R20113). In Example 1 above, the 82 subject patients included patients who were tested for both change in cognitive function and change in cerebral blood flow, as well as patients who were tested for only either change in cognitive function or change in cerebral blood flow. Therefore, based on the above results, the same analysis as in Example 1 was performed again on 79 patients who were tested for both change in cognitive function and change in cerebral blood flow from among the 82 patients. […] The baseline mean total MoCA scores were 23.6±3.6 in the non-RES group and 23.7±3.6 in the RES group. Further, the mean total ADAS-Cog scores were 14.6±5.4 in the non-RES group and 15.8±7.2 in the RES group. The mean observation periods were 244.8±86.9 and 221.2±61.9 days, respectively (p=0.18). The baseline scores were under the category of mild cognitive impairment (MCI) (Table 4). For the 79 patients, the amount of change in MoCA and ADAS-Cog scores was examined to investigate changes in cognitive function associated with administration of resveratrol. […] According to ADAS-Cog, a significant association was found with cognitive function improvement in the RES group in terms of delayed recall (0.5±1.6 VS. −0.9±1.8; p=0.001), memory domain (0.4±3.3 VS. −1.6±3.1; p=0.007), and total score (0.5±3.7 vs. −1.5±3.4; p=0.019). Therefore, after adjusting for age, gender, hypertension, diabetes, dyslipidemia, and coronary artery disease, a multivariate linear regression model analysis was performed. Resveratrol intake was an independent predictor of improvement in spatial cognitive and executive functions (β=0.26, 95% confidence interval [CI]: 0.062-1.15, p=0.03) and memory (memory domain: β=−0.26, 95% CI: −3.23 to −0.15, p=0.032; delayed recall: β=−0.37, 95% CI: −2.16 to −0.54, p=0.001) (Table 5). Accordingly, resveratrol may have contributed to improvement in the visuospatial cognitive function, executive function, and memory.

[6] = test system: patients with asymptomatic moderate or severe carotid artery stenosis/occlusion; assay: Alzheimer's Disease Assessment Scale-Cognitive subscale 13 (ADAS-Cog), change during observation period; format: in vivo, human; settings: for β, resveratrol intake vs ADAS-Cog delayed recall change / β, resveratrol intake vs ADAS-Cog memory domain change / β, resveratrol intake vs ADAS-Cog total change: 79 patients, linear regression
Experimental: as §1

[7] = Example 1, relative to cerebellum, before vs after RES administration, 30 mg/day
[8] = Example 2, multivariable analysis
[9] = Example 2, univariable analysis
[10] = Example 2, RES group n = 36 of 79 patients, 30 mg/day
[11] = Example 1, RES group 37 of 82 patients, 30 mg/day
[12] = Example 2, multivariate analysis

For Oc1ccc(/C=C/c2cc(O)cc(O)c2)cc1 [resveratrol, 3,4′, 5-trihydroxy-trans-stilbene], the “Effect in human Alzheimer's patients” value [1] is given as “no effect was observed”, the Adverse events [2] is given as “no adverse events observed” and the Autophagy [3] is given as “activation of autophagy”. For the same compound, the Cognitive function [3] was “improvement in cognitive function”, the “Oxidative stress-induced nerve damage” value [3] was “reduced oxidative stress-induced nerve damage” and the “Cerebral oxygen uptake rate” value ([4]; Example 1, 30 mg/day) was “no association”. The “Cerebral oxygen metabolic rate” value ([4]; Example 1, all areas, 30 mg/day) was “tendency for an association between RES intake and an increase in the cerebral oxygen metabolic rate”, the “Cerebral blood flow in other areas” value ([4]; Example 1, areas other than those of Table 3, relative to cerebellum) was “tendency for an association between RES intake and an increase in the cerebral blood flow” and the “Amount of change in cerebral blood flow: Left callosomarginal artery area” value [4, 7] was 0.171 ± 0.42. For the same compound, the “Amount of change in cerebral blood flow: Left putamen” value [4, 7] was 0.19 ± 0.57, the “Amount of change in cerebral blood flow: Left thalamus” value [4, 7] was 0.449 ± 0.90 and the “Amount of change in cerebral blood flow: Right callosomarginal artery area” value [4, 7] was 0.179 ± 0.34. The “Amount of change in cerebral blood flow: Right frontal lobe” value [4, 7] was 0.215 ± 0.35, the “Amount of change in cerebral blood flow: Right thalamus” value [4, 7] was 0.393 ± 0.85 and the “β, resveratrol intake vs cerebral blood flow change: Frontal circulation area” value [4, 8] was 0.25. For the same compound, the “β, resveratrol intake vs cerebral blood flow change: Left callosomarginal artery area” value [4, 8] was 0.27, the “β, resveratrol intake vs cerebral blood flow change: Left lenticular nucleus” value [4, 8] was 0.31 and the “β, resveratrol intake vs cerebral blood flow change: Right callosomarginal artery area” value [4, 8] was 0.29. The “β, resveratrol intake vs cerebral blood flow change: Right precentral artery” value [4, 8] was 0.25, the “β, resveratrol intake vs cerebral blood flow change: Thalamus, Left” value [4, 8] was 0.29 and the “β, resveratrol intake vs cerebral blood flow change: Thalamus, Right” value [4, 8] was 0.23. For the same compound, the “β, resveratrol intake vs cerebral blood flow change: Frontal circulation area” value [4, 9] was 0.25, the “β, resveratrol intake vs cerebral blood flow change: Left callosomarginal artery area” value [4, 9] was 0.24 and the “β, resveratrol intake vs cerebral blood flow change: Left lenticular nucleus” value [4, 9] was 0.29. For the same compound, the “β, resveratrol intake vs cerebral blood flow change: Right callosomarginal artery area” value [4, 9] was 0.28, the “β, resveratrol intake vs cerebral blood flow change: Right precentral artery” value [4, 9] was 0.25 and the “β, resveratrol intake vs cerebral blood flow change: Thalamus, Left” value [4, 9] was 0.29. For the same compound, the “β, resveratrol intake vs cerebral blood flow change: Thalamus, Right” value [4, 9] was 0.24, the “Cerebral blood flow change: entire left hemisphere” value [4, 10] was 0.014±0.031 and the “Cerebral blood flow change: entire right hemisphere” value [4, 10] was 0.016±0.032. For the same compound, the “Cerebral blood flow change: left callosomarginal artery area” value [4, 10] was 0.017±0.042, the “Cerebral blood flow change: left lenticular nucleus” value [4, 10] was 0.033±0.06 and the “Cerebral blood flow change: left thalamus” value [4, 10] was 0.045±0.090. The “Cerebral blood flow change: right callosomarginal artery area” value [4, 10] was 0.018±0.034, the “Cerebral blood flow change: right frontal lobe” value [4, 10] was 0.019±0.033 and the “Cerebral blood flow change: right precentral artery area” value [4, 10] was 0.021±0.035. For the same compound, the “Cerebral blood flow change: right thalamus” value [4, 10] was 0.039±0.85, the “Amount of change in MoCA: Executive function/spatial cognitive function” value [5, 11] was 0.35 ± 1.0 and the “β, resveratrol intake vs MoCA visuospatial cognitive function/executive function change” value ([5]; Example 2, multivariate analysis adjusted for age, gender, hypertension, diabetes, dyslipidemia, coronary artery disease) was 0.26. The “β, resveratrol intake vs MoCA visuospatial cognitive function/executive function change” value ([5]; Example 2, univariate analysis) was 0.257, the “Amount of change in MoCA: visuospatial cognitive and executive functions” value [5, 10] was 0.4±0.9 and the “Amount of change in total MoCA score” value [5, 10] was 0.4±2.6. The “Amount of change in ADAS-Cog: Total” value [6, 11] was −1.48 ± 3.4, the “Amount of change in ADAS-Cog: delayed recall” value [6, 11] was −0.89 ± 1.7 and the “Amount of change in ADAS-Cog: memory domain” value [6, 11] was −1.65 ± 3.0. The “β, resveratrol intake vs ADAS-Cog delayed recall change” value [6, 12] was −0.37, the “β, resveratrol intake vs ADAS-Cog memory domain change” value [6, 12] was −0.26 and the “β, resveratrol intake vs ADAS-Cog total change” value [6, 12] was −0.18. The “β, resveratrol intake vs ADAS-Cog delayed recall change” value ([6]; Example 2, univariate analysis) was −0.37, the “β, resveratrol intake vs ADAS-Cog memory domain change” value ([6]; Example 2, univariate analysis) was −0.30 and the “β, resveratrol intake vs ADAS-Cog total change” value ([6]; Example 2, univariate analysis) was −0.26. For the same compound, the “Amount of change in ADAS-Cog: delayed recall” value [6, 10] was −0.9±1.8, the “Amount of change in ADAS-Cog: memory domain” value [6, 10] was −1.6±3.1 and the “Amount of change in ADAS-Cog: total score” value [6, 10] was −1.5±3.4.
